Results on 11 compounds are retold here after patent US12472193B2, “Methods and compositions for treating and preventing respiratory related diseases and conditions with xylitol-headgroup lipid analogs” (National Jewish Health, priority 2017, dated 2025).

The test has as its target T1, TLR 4 (Mus musculus, UniProt Q9JHF9+Q9QUK6).
T1 construct: endogenous in cells; host or cells: RAW264.7 (ATCC)
T1 sequence (Q9QUK6 26-835): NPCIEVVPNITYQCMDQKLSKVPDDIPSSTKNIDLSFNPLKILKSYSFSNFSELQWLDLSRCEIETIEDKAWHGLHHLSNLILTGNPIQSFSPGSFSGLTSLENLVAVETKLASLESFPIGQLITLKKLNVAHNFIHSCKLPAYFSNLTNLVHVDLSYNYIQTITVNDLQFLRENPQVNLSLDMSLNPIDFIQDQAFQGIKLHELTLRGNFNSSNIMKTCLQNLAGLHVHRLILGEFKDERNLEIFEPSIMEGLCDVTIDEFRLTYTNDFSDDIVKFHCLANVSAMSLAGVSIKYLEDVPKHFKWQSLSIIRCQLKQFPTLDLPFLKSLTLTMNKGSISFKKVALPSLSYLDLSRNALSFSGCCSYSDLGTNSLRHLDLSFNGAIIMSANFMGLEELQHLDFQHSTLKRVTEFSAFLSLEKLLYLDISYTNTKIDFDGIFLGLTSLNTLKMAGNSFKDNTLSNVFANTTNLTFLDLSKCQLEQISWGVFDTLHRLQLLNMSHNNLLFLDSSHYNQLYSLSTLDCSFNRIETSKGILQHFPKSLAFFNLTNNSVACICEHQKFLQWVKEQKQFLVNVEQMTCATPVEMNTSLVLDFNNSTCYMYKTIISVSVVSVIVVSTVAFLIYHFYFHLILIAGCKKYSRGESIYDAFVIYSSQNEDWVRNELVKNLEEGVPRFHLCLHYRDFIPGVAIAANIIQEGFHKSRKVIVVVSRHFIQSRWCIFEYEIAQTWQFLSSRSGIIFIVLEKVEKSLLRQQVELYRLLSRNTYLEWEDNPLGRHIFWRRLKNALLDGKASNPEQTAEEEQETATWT
T1 sequence (Q9JHF9 19-160): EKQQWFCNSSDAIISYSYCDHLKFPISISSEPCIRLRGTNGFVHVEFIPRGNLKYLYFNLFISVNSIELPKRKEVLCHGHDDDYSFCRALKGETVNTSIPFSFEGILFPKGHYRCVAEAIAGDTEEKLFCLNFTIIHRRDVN
As to the kind of experiment: LPS-induced TNF-α secretion by RAW264.7 cells (TLR 4 antagonism). The format is cell-based. The note with it: for antagonism of TLR 4 activation (TNFα secretion): 10 ng/mL LPS, 50 μg/mL lipid; for antagonism of TLR 4 activation (TNFα secretion) / IC50 / IC50 values (inhibition of TNFα release): 4 hours; for IC50 / IC50 values (inhibition of TNFα release): RAW264.7, 10 ng/mL LPS, lipid 100 to 0.008 μg/mL; for IC50: read-out: IC50 values (inhibition of TNFα release) (converted); for potency as TLR 4 antagonist compared to POPG: from dose response curves. The protocol:
The mouse macrophage cell line, RAW264.7, was obtained from ATCC and maintained in DMEM, supplemented with 10% bovine growth serum and 1× penicillin streptomycin. Cells were maintained at 37° C. with 5% carbon dioxide: 95% air atmosphere within the incubator. Experiments were completed in a 96-well plate where cells were seated at a density of 1×10^5 cells per well, 24 prior to stimulation with TLR agonists and antagonists. Lipids were dried under a stream of nitrogen, hydrated with phosphate-buffered saline (PBS) at 37° C. for one hour, followed by water bath sonication to create liposomes. Each condition for cell stimulation and antagonism was prepared in DMEM in a separate tube and consisted of: control, TLR agonist, TLR agonist+lipid, and lipid alone. 100 μL aliquots of medium+agonists+antagonists were added to each well and incubated at 37° C. for 4 hours. Subsequently, the media were collected, diluted and an enzyme-linked immunosorbent assay (ELISA) was performed to quantify TNFα release by cells.
The additional experiments disclosed herein, tested the initial activity of multiple POPG analogs. […] However, it was unknown how the combination of a xylitol head group along with varying hydrophobic chains affects this activity and mechanism of suppression. Varying the hydrophobic chains provides an approach for optimization of a PX lipid for maximum efficacy and uncovers important structure/function relationships. To test antagonist activity of PX lipids for preventing the activation of TLR 4, LPS was added to RAW264.7 cells at 10 ng/mL in the absence or presence of 50 μg/mL of lipid and incubated for 4 hours. After incubation, media were collected and secretion of the proinflammatory cytokine, TNFα, was quantified by ELISA as a downstream consequence of TLR 4 activation. Eight xylitol lipid analogs suppressed the activation of TLR 4 in the presence of LPS stimulus. […] Although inhibition of TLR 4 by DSPX was statistically different from LPS alone, its antagonism was marginal. DSPX is also a saturated lipid and the hydrophobic chains are 18 carbons in length. […] In these studies none of the lipids alone elicited significant amounts of proinflammatory cytokine release.
For quantitative comparisons between POPG analogs and POPG, concentration-dependent inhibition studies were performed and IC50 values were determined. RAW264.7 cells were stimulated with 10 ng/mL of LPS in combination with concentrations of lipid from 100 μg/mL to 0.008 μg/mL. Cells were stimulated for 4 hours followed by collection of media and quantification of TNFα released into the medium.

Entries after “also recorded” stand apart in the source; their conditions may differ.

With `CCCCCCCCCCCCCCOC[C@H](COP(=O)(O)OCC(O)C(O)C(O)CO)OCCCCCCCCCCCCCC` (mixture of isomers) [14:0 DEPX, sn-1-O-myristyl, sn-2-O-myristyl sn-3 glycerol phosphoxylitol], the “antagonism of TLR 4 activation (TNFα secretion)” value (“antagonism of TLR 4 activation” for short) was “effective antagonists” and the IC50 is 4.08 µM.
On to `CCCCCCCC/C=C\CCCCCCCC(=O)O[C@H](COC(=O)CCCCCCCCCCCCCCC)COP(=O)([O-])OCC[N+](C)(C)C` [POPC, 1-palmitoyl-2-oleoyl-sn-glycero-3-phosphocholine, reference compound], for which the “antagonism of TLR 4 activation” value was “does not significantly alter the activation of TLR4” and the “IC50 values (inhibition of TNFα release)” value is on record as “could not be determined”.
As to `CCCCCCCC/C=C\CCCCCCCC(=O)O[C@H](COC(=O)CCCCCCCCCCCCCCC)COP(=O)(O)OCC(O)CO` (stereo partly drawn) [POPG, palmitoyl-oleoyl-phosphatidylglycerol, reference compound], the “antagonism of TLR 4 activation” value is “inhibits activation of TLR4” and the “IC50 values (inhibition of TNFα release)” value was 3.33 µg/mL. Further, the “inhibitory concentration reducing TNF-α production by 50% (IC50), as shown in FIG. 3” value (RAW264.7, 10 ng/ml LPS) was about 2 µg/mL.
In the case of `CCCCCCCCC=CCCCCCCCC(=O)OCC(COP(=O)(O)OCC(O)C(O)C(O)CO)OC(=O)CCCCCCCC=CCCCCCCCC` (mixture of isomers) [DOPX, sn-1-oleoyl, sn-2-oleoyl sn-3 glycerol phosphoxylitol], the “antagonism of TLR 4 activation” value is listed as “inhibit”, the “IC50 values (inhibition of TNFα release)” value stood at 0.36 µg/mL and the “potency as TLR 4 antagonist compared to POPG” value (shortened to “potency … compared to POPG”) is “more potent antagonists of TLR 4 activation than POPG”.
Take `CCCCCCCCCCCCCCCCCC(=O)OCC(COP(=O)(O)OCC(O)C(O)C(O)CO)OC(=O)CCCCCCCCCCCCCCCCC` (stereo not drawn) [DSPX, sn-1-stearoyl, sn-2-stearoyl sn-3 glycerol phosphoxylitol]: the “antagonism of TLR 4 activation” value is given as “marginal” and the “IC50 values (inhibition of TNFα release)” value was “could not be determined”.
As to `CCCCCCCC/C=C\CCCCCCCC(=O)O[C@H](COC(=O)CCCCCCCCCCCCCCC)COP(=O)(O)OCC(O)C(O)C(O)CO` (stereo partly drawn) [POPX, sn-1-palmitoyl, sn-2-oleoyly sn-3 glycerol phosphoxylitol], the “IC50 values (inhibition of TNFα release)” value is 0.52 µg/mL and the “potency … compared to POPG” value was “more potent antagonists of TLR 4 activation than POPG”.
As to `CCCCCCCCCCCCCC(=O)OC[C@H](COP(=O)(O)OCC(O)C(O)C(O)CO)OC(=O)CCCCCCCCCCCCC` (mixture of isomers) [DMPX, sn-1-myristoyl, sn-2-myristoyl sn-3 glycerol phosphoxylitol], the “antagonism of TLR 4 activation” value is “strong antagonistic activity” and the IC50 was 33 µM.
Turning to `CCCCCCCCC=CCCCCCCCCOCC(COP(=O)(O)OCC(O)C(O)C(O)CO)OCCCCCCCCC=CCCCCCCCC` (mixture of isomers) [18:1 DEPX, sn-1-O-octadecenyl, sn-2-O-octadecenyl sn-3 glycerol phosphoxylitol], the “antagonism of TLR 4 activation” value is “effective antagonists; also recorded: inhibit”, the “IC50 values (inhibition of TNFα release)” value came to 0.33 µg/mL and the “potency … compared to POPG” value is given as “more potent antagonists of TLR 4 activation than POPG”.
Regarding `CCCCCCCCCCCCCCCC(=O)OCC(COP(=O)(O)OCC(O)C(O)C(O)CO)OC(=O)CCCCCCCCCCCCCCC` (stereo not drawn) [DPPX, sn-1-palmitoyl, sn-2-palmitoyl sn-3 glycerol phosphoxylitol], the “antagonism of TLR 4 activation” value is listed as “ineffective as an antagonist” and the “IC50 values (inhibition of TNFα release)” value is recorded as “could not be determined”.
`CCCCCCC=CCCCCCCCC(=O)OCC(COP(=O)(O)OCC(O)C(O)C(O)CO)OC(=O)CCCCCCCC=CCCCCCC` (mixture of isomers) [16:1 DPPX, sn-1-palmitoleoyl, sn-2-palmitoleoyl sn-3 glycerol phosphoxylitol]: the “IC50 values (inhibition of TNFα release)” value was found to be 1 µg/mL.
`CCCCCC=CCC=CCCCCCCCC(=O)OCC(COP(=O)(O)OCC(O)C(O)C(O)CO)OC(=O)CCCCCCCC=CCC=CCCCCC` (mixture of isomers) [18:2 DLPX, sn-1-linoleoyl, sn-2-linoleoyl sn-3 glycerol phosphoxylitol]: the “IC50 values (inhibition of TNFα release)” value turned out to be 0.28 µg/mL and the “potency … compared to POPG” value is reported as “more potent antagonists of TLR 4 activation than POPG”.

As usually defined, the IC50 is the concentration that gives 50% inhibition.
